Measurements from article PMC2822059 (Nature chemical biology, 2010).

Tests used:
H976Y HDAC4 = conditions: mutant versus wild type; cited from earlier work
[1] = tested on: acetylated histones (AcH3K18), Jurkat cells; test: Immunoblot for acetylated histones in treated cells; assay type: cell-based, human; conditions: 24 hours, time- and dose-dependent
[2] = tested on: acetylated alpha-tubulin (AcTub), Jurkat cells; test: Immunoblot for acetylated alpha-tubulin in treated cells; assay type: cell-based, human; conditions: 24 hours, time- and dose-dependent

SMILES | increased affinity for H976Y HDAC4 gain of function mutant (H976Y HDAC4) | hyperacetylation of Class I deacetylase targets (bulk histones) [1] | hyperacetylation of HDAC6 target α-tubulin [2]
O=C(/C=C/c1ccc(CN(CCO)CCc2c[nH]c3ccccc23)cc1)NO [LAQ-824] | 100 fold | – | –
O=C(/C=C/c1ccc(C(=O)N/N=C/c2ccc(O)c(O)c2O)cc1)NO [pandacostat] | – | confers hyperacetylation | confers hyperacetylation
